# According to patent US20180028471A1, “CONTINUOUS LOCAL SLOW-RELEASE OF THERAPEUTICS FOR HEAD AND NECK PROBLEMS AND UPPER AERODIGESTIVE DISORDERS” (Board of Supervisors of Louisiana State University and …, priority 2016, published 2018):
# Legend:
# [1] = tested on: mTOR pathway markers; test: Phase 2 biomarker exploratory trial: mTOR pathway markers in tumors and PBMCs; format: in vivo; conditions: HNSCC patients
# Text: Criteria #1) Biomarker expression in normal tissue should be different from that in high risk tissue. In FIG. 2 we present an analysis of cancer (lanes 5, 6, 11, and 12) and non-cancer (patients with sleep apnea) (lanes1-4 and 7-10) patient samples. The cancer samples include tumors (T) and histologically tumor-free margins (M). […] Criteria #2) Biomarkers can be detected in small tissue specimens. In our studies we have successfully detected by western blots and even by IHC the various Akt/mTOR markers on samples often as small as 5 mm. Criteria #3) Biomarkers can be expressed in a quantity or pattern that can be correlated with the stage of carcinogenesis.
# [2] = tested on: minimal residual disease; test: Model of minimal residual disease (tumor formation, survival); format: in vivo
# [3] = tested on: HNSCC cell lines; test: Inhibition of cell proliferation in HNSCC cell lines; format: cell-based
# Text: While curcumin can be used to treat these cancers, other compounds that act on these pathways may also be useful in treating these cancers and it should be readily recognized that such compounds could also be delivered by including in the formulations described herein.
# [4] = tested on: SCC066; test: Modulation of NFκB and Akt/mTOR pathways in SCC066 cells; format: cell-based; conditions: 10 μM, 24 and 48 hours
# [5] = tested on: SCC40 cells; test: Modulation of NFκB and Akt/mTOR pathways in SCC40 cells; format: cell-based; conditions: 10 μM
# [6] = tested on: DMBA-induced oral tumors; conditions: 10 μmol topically to cheek pouch 3 times/week for 24 weeks; cited from earlier work
# [7] = tested on: prostate cancer xenograft; conditions: p.o. gavage 5 mg/day, 5 days/week for 4 weeks; cited from earlier work
# [8] = tested on: SCC40 xenografts; test: pAkt and pS6 in SCC40 xenografts of treated mice; format: in vivo; conditions: mice with SCC40 xenografts, FIG. 3B
# [9] = tested on: normal fibroblast cell line CCL110; test: Modulation of NFκB and Akt/mTOR pathways in CCL110 normal fibroblasts; format: cell-based; conditions: 10 μM, 24 and 48 hours
# [10] = tested on: tumor cells; test: Chemoprevention model: pre-treatment before tumor cell injection, tumor volumes; format: in vivo, Balb/c nu/nu mice; conditions: 10 mg, pre-treated 4 days before tumor cell injection, about three weeks
# Experimental: Balb/c nu/nu mice were randomized into treatment groups. […] Tumors were measured over approximately three weeks. […] ANOVA analysis. […] This also points to its role as a chemopreventive agent rather than a therapeutic agent.
# [11] = tested on: PCI15a cells; test: Modulation of NFκB and Akt/mTOR pathways in PCI15a cells; format: cell-based; conditions: 10 μM
# [12] = tested on: TPA-induced tumor promotion on mouse skin; conditions: topical application of 10 μmol twice weekly; cited from earlier work
# [13] = tested on: normal fibroblast cell line CCL110; test: Effects on normal fibroblast cell line CCL110 (proliferation); format: cell-based; conditions: normal fibroblast cell line CCL110, FIG. 1
smiles,measurement,setting,value
"CO[C@H]1C[C@@H]2CC[C@@H](C)[C@@](O)(O2)C(=O)C(=O)N2CCCC[C@H]2C(=O)O[C@H]([C@H](C)C[C@@H]2CC[C@@H](OC(=O)C(C)(CO)CO)[C@H](OC)C2)CC(=O)[C@H](C)/C=C(\C)[C@@H](O)[C@@H](OC)C(=O)[C@H](C)C[C@H](C)/C=C/C=C/C=C/1C [CCI-779, temsirolimus]",mTOR pathway markers in tumors and PBMCs,[1],modulation of these markers
same,survival,[2],improve survival
same,tumor formation,[2],inhibit tumor formation
"CO[C@H]1C[C@@H]2CC[C@@H](C)[C@@](O)(O2)C(=O)C(=O)N2CCCC[C@H]2C(=O)O[C@H]([C@H](C)C[C@@H]2CC[C@@H](OCCO)[C@H](OC)C2)CC(=O)[C@H](C)/C=C(\C)[C@@H](O)[C@@H](OC)C(=O)[C@H](C)C[C@H](C)/C=C/C=C/C=C/1C [RAD001, everolimus, reference compound]",sensitivity of a variety of cell lines,[3],wide range of sensitivity
COc1cc(/C=C/C(=O)CC(=O)/C=C/c2ccc(O)c(OC)c2)ccc1O [curcumin],Akt/mTOR pathway,[4],did not show any modulation
same,Akt/mTOR pathway,[5]; 24 and 48 hours,no change
same,pNFκB,[5]; after 48 hours,down-regulation
same,reduction of the number of DMBA-induced oral tumors,[6],~40%
same,inhibition of growth of prostate cancer xenograft,[7],~50%
same,pAkt,[8],significant decrease
same,pS6,[8],significant decrease
same,pNFκB or Akt/mTOR,[9],no decrease
same,tumor volumes versus control (vehicle treated),[10],no significant difference
same,pNFκB,[11]; 24 and 48 hours,no change
same,pAkt,[11]; 48 hours,down-regulated
same,pS6 downstream of mTOR,[11]; 48 hours,down-regulated
same,inhibition of the number of tumors per mouse,[12],98%
same,dose required to see effects,[13],20 to 40 µM
same,growth inhibitory effects on all HNSCC cell lines tested,[3]; all 10 HNSCC cell lines tested to date,growth inhibitory effects
same,cell proliferation at 10 μM,"[3]; all HNSCC cell lines, 10 μM, FIG. 1",inhibition of cell proliferation
same,growth inhibitory effects at 48 hours,"[3]; all three HNSCC cell lines, 48 hours",significant growth inhibitory effects
same,concentration giving consistent inhibition of cell proliferation,"[3]; variety of HNSCC cell lines, in vitro, FIG. 1",less than 10 μM
same,sensitivity of a variety of cell lines,[3],consistently sensitive
